This data set is described as follows: Release of benzoic acid from pie-shaped-compartment dosage form, UV 226 nm. The following applies: PEG8000 flat tablet with pie shaped compartment; pH 8 Na2HPO4 solution, 37° C., 100 rpm; FIG. 18C. It counts as physicochemical. The procedure:
The release profile of the benzoic acid from the dosage form was measured as the following method. Na2HPO4 solution of pH 8 was prepared as dissolvent of benzoic acid. Benzoic acid solution of 120 μg/mL was serially diluted to 30 μg/mL, 15 μg/m, 7.5 μg/m, 3.75 μg/mL, and 1.875 μg/mL solutions, whose absorbance at 226 nm was measured using a UV spectrophotometer. The numbers obtained were treated with linear regression to generate a standard curve of benzoic acid concentration with the formula y=0.0599x+0.0347. To measure the released amount of benzoic acid, the dosage form was dissolved in degassed pH 8 Na2HPO4 solution at 37° C.±0.5° C. and […] at 100 rpm. 5 mL solution was collected from the solution at each time point to measure the concentration of benzoic acid with 5 mL dissolvent added back to the solution. The collected solution was filtered through 0.45 um membrane before transferred to an UV spectrophotometer for measuring the absorbance at 226 nm. The percentage of benzoic acid released was calculated using the following formula: […]
Wherein Cn means concentrate measured, Vtmeans total solution volume,
Vs means sample volume, Qbenzoic acid means amout of benzoic acid in the dosage form

Regarding `O=C(O)c1ccccc1` [benzoic acid, Benzoic acid], the “release profile of the benzoic acid” value is reported as “matches a model profile”.

Source of the values: patent publication US11278499B2, “Oral drug dosage form comprising various release profiles” (Triastek, Inc., priority 2015, dated 2022).
